From ChEMBL document CHEMBL1909046, “DrugMatrix in vitro pharmacology data”

What was measured:
[1] = molecular target: T1, B2 bradykinin receptor (Homo sapiens, UniProt P30411); assay type: cell membranes, Membrane; conditions: chem-1; note: in other assays of this panel Not Active means under 50% inhibition at 10 µM
T1 sequence (P30411 whole entry): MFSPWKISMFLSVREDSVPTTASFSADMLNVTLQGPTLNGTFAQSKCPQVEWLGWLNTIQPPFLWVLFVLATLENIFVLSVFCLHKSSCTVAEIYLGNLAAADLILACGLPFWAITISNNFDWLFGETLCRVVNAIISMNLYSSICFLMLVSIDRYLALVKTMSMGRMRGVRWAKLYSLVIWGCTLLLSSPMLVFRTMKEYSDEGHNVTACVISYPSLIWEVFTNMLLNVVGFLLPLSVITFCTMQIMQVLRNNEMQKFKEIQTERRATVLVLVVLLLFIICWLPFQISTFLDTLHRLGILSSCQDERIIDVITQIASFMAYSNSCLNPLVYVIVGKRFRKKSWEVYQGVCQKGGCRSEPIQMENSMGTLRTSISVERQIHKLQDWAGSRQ

[2] = molecular target: Mitogen-activated protein kinase 3 (Homo sapiens, UniProt P27361); assay: DRUGMATRIX: Protein Serine/Threonine Kinase, ERK1 enzyme inhibition (substrate: Myelin Basic Protein); parameters: species or system Escherichia coli; conditions: Not Active = under 50% inhibition at 10 µM
Mitogen-activated protein kinase 3, sequence (P27361 whole entry): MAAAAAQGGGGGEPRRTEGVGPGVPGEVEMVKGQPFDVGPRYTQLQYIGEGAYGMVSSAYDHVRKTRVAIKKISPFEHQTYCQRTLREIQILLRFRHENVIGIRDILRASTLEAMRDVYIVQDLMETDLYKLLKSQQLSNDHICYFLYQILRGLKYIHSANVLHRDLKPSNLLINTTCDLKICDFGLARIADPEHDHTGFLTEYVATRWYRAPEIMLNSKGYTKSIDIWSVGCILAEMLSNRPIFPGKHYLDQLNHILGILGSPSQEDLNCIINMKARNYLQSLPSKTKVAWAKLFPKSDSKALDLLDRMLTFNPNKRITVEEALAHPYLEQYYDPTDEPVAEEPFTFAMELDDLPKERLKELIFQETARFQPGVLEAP

[3] = molecular target: T2, D(4) dopamine receptor (Homo sapiens, UniProt P21917); assay: DRUGMATRIX: Dopamine D4.2 radioligand binding (ligand: [3H] Spiperone); assay type: cell membranes, CHO-K1, Membrane; conditions: cho-k1, Not Active = under 50% inhibition at 10 µM
T2 sequence (P21917 whole entry): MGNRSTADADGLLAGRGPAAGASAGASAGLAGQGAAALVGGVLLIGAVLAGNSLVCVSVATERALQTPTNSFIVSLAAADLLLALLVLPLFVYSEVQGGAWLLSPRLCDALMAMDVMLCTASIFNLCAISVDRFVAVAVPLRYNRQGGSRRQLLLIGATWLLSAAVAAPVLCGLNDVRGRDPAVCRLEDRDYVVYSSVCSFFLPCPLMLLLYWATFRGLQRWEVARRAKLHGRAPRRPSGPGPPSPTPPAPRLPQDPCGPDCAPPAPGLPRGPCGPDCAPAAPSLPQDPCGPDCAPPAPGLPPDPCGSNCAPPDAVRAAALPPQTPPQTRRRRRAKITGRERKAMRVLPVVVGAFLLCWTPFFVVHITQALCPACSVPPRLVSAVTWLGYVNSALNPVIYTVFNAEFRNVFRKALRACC

[4] = molecular target: Substance-P receptor (Homo sapiens, UniProt P25103); assay type: cell membranes, CHO, Membrane; conditions: cho; note: in other assays of this panel Not Active means under 50% inhibition at 10 µM
Substance-P receptor, sequence (P25103 whole entry): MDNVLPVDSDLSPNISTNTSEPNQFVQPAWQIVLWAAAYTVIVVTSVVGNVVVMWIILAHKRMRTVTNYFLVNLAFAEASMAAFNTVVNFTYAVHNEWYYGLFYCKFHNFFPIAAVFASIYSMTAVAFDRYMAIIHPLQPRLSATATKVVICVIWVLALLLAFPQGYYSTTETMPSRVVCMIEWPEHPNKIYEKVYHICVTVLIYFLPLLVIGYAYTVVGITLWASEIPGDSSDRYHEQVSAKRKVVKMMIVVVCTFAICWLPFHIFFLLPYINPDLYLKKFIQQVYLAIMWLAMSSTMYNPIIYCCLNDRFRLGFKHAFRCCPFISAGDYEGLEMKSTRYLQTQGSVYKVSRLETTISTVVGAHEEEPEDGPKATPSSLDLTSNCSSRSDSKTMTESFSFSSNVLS

[5] = DRUGMATRIX: Imidazoline I2, Central radioligand binding (ligand: [3H] Idazoxan); assay type: cell membranes, Rattus norvegicus, Wistar, Cerebral cortex, Membrane; conditions: Not Active = under 50% inhibition at 10 µM
[6] = molecular target: Matrix metalloproteinase-9 (Homo sapiens, UniProt P14780); assay: biochemical; assay type: cell-based;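 note: inhibition of isolated MMP-9 enzyme activity toward a synthetic peptide substrate, from the DrugMatrix protease screening panel; in other assays of this panel Not Active means under 50% inhibition at 10 µM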
Matrix metalloproteinase-9, sequence (P14780 whole entry): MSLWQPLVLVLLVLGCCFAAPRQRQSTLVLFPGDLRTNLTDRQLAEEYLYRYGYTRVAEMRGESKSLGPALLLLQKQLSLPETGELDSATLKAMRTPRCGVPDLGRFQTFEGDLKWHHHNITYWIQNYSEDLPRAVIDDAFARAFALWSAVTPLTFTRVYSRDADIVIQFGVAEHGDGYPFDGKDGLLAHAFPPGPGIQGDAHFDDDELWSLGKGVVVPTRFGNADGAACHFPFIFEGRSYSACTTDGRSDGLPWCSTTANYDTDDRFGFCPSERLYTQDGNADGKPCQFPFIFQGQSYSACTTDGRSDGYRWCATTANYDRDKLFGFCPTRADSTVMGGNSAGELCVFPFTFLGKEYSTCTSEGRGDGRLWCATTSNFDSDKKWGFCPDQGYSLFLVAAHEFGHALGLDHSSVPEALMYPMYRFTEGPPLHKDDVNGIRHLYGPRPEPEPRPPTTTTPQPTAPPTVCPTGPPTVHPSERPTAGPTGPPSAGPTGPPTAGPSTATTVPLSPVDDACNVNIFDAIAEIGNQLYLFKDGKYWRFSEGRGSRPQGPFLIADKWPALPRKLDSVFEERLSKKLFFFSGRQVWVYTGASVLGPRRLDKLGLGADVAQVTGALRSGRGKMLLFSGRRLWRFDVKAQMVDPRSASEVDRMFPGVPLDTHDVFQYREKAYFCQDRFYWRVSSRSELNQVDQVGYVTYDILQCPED

[7] = DRUGMATRIX: Platelet-Derived Growth Factor (PDGF) radioligand binding (ligand: [125I] PDGF); assay type: cell-based; conditions: nih3t3; Not Active = under 50% inhibition at 10 µM

| Compound | IC50 [1] | IC50 [2] | IC50 [3] | IC50 [4] | IC50 [5] | Ki [5] | IC50 [6] | IC50 [7] | Ki [7] | Ki [1] | Ki [2] | Ki ([3]; read-out: Ki) | Ki [4] | Ki [6] | Ki [3] |
| --- | --- | --- | --- | --- | --- | --- | --- | --- | --- | --- | --- | --- | --- | --- | --- |
| CC(C)c1cccc(C(C)C)c1O [PROPOFOL] | Not Active | Not Active | Not Active | Not Active | Not Active | Not Active | Not Active | Not Active | Not Active | – | – | – | – | – | – |
| C[C@@H]1O[C@@H](O[C@@H]2C=C3CC[C@@H]4[C@H](CC[C@]5(C)[C@@H](c6ccc(=O)oc6)CC[C@]45O)[C@@]3(C)CC2)[C@H](O)[C@H](O)[C@H]1O [PROSCILLARIDIN] | Not Active | Not Active | Not Active | Not Active | Not Active | Not Active | Not Active | Not Active | Not Active | – | – | – | – | – | – |
| Oc1cccc(O)c1O [PYROGALLOL] | Not Active | Not Active | Not Active | Not Active | Not Active | Not Active | Not Active | Not Active | Not Active | – | – | – | – | – | – |
| AURANOFIN | Not Active | Not Active | – | Not Active | Not Active | Not Active | Not Active | Not Active | Not Active | Not Active | Not Active | 394 nM | Not Active | Not Active | – |
| GADOPENTETATE DIMEGLUMINE | Not Active | Not Active | Not Active | Not Active | Not Active | Not Active | Not Active | Not Active | Not Active | Not Active | Not Active | – | Not Active | Not Active | Not Active |
| GENTAMICIN | Not Active | Not Active | Not Active | Not Active | Not Active | Not Active | Not Active | Not Active | Not Active | Not Active | Not Active | – | Not Active | Not Active | Not Active |
| GRAMICIDIN | Not Active | Not Active | Not Active | Not Active | Not Active | Not Active | Not Active | Not Active | Not Active | Not Active | Not Active | – | Not Active | Not Active | Not Active |
| NYSTATIN | Not Active | Not Active | Not Active | Not Active | Not Active | Not Active | Not Active | Not Active | Not Active | Not Active | Not Active | – | Not Active | Not Active | Not Active |
